For 1 substance, IC50 results are on record in article PMC8999125, “In Vitro and In Vivo Effects of the Urokinase Plasminogen Activator Inhibitor WX-340 on Anaplastic Thyroid Cancer Cell Lines” (International Journal of Molecular Sciences, 2022).

The experiment concerns the target T1, urokinase-type plasminogen activator (uPA) (Homo sapiens, UniProt P00749).
T1 construct: gene PLAU; uPA purified from human urine
Put plainly: colorimetric uPA activity assay (CHEMICON kit), dose-response […] to […]. The class given is biochemical.

In turn, WX-340 displayed an IC50 of 90 nM.
